Experimental data taken from patent US7897602B2, “Indolinone compounds as kinase inhibitors” (Development Center for Biotechnology, priority 2009, dated 2011).

Tests used:
Format in all cases: biochemical
Aurora A kinase = biological target: T1, Aurora A kinase (Homo sapiens, UniProt O14965); test: Aurora A kinase assay ([γ-33P]ATP, CHOCKtide substrate); conditions: for inhibition at 1 µM: 1.0 μM test compound
T1 construct: purchased Upstate
T1 sequence (O14965 1-403): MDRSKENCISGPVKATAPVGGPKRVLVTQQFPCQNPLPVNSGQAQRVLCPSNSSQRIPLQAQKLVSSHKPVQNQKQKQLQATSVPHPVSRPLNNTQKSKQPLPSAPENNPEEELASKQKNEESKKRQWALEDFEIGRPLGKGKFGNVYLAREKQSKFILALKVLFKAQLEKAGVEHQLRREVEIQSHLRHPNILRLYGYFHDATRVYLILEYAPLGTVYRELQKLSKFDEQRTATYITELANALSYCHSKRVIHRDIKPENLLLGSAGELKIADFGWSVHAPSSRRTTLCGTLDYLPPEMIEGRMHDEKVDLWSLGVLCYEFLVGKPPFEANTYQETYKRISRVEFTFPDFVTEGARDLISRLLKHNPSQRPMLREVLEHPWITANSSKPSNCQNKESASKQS
Method: (§1) Inhibition of Aurora Kinase by the compounds disclosed herein was determined by incubating Aurora kinase, substrate, and a test compound together for a period of time followed by quantifying the resultant phosphorylated product. Specifically, in a well of a 96-well round bottom plate, 25 μL of a reaction mixture containing (1) a test compound disclosed herein (diluted from 9 μM to the desired final concentration), [γ-33P]ATP/ATP mix (10 μM), CHOCKtide (1 μg, Genesis Biotech Inc.), and Aurora-A (1 ng, purchased from Upstate); or (2) a test compound disclosed herein (diluted from 9 μM to the desired final concentration), [γ-33P]ATP/ATP mix (40 μM), CHOCKtide (1 μg, Genesis Biotech Inc.), and Aurora-B (2.5 ng, purchased from Cell signaling); was prepared and incubated at 33° C. for 30 minutes. The reaction was then stopped by adding 5 μL of 3% phosphoric acid. The resultant solution (30 μL) was later harvested by a UniFilter Plate GF/B (PerkinElmer) followed by adding 30 μL of the scintillation cocktail (MicroScint 20, PerkinElmer) to the well. The radioactivity retained on the filter membrane was measured by a luminescence counter (PerkinElmer). IC50 value is defined as the concentration of the test compound which achieves a half-maximal inhibition of the kinase activity.

Aurora B kinase = biological target: T2, Aurora B kinase (Homo sapiens, UniProt Q96GD4); test: Aurora B kinase assay ([γ-33P]ATP, CHOCKtide substrate); conditions: for inhibition at 1 µM: 1.0 μM test compound
T2 construct: purchased Cell signaling
T2 sequence (Q96GD4 whole entry): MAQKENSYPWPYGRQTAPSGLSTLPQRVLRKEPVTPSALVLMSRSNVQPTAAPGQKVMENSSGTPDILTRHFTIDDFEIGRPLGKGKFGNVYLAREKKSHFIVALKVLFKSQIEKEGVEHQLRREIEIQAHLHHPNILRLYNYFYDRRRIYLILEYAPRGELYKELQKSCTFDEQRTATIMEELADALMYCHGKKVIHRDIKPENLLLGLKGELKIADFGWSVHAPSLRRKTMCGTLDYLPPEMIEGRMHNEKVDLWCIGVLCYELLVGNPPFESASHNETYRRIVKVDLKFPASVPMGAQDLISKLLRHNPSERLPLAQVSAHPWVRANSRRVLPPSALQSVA
Method: as §1

c-Met kinase = biological target: T3, c-Met kinase (Homo sapiens, UniProt P08581); test: c-Met kinase assay (33P incorporation into Poly(Glu-Tyr)); conditions: 500 nM test compound
T3 construct: recombinant N-terminal 6×His-tagged c-Met kinase domain construct expressed from baculovirus; 6xHis (N); made in house
T3 sequence (P08581 1078-1345 limits assumed): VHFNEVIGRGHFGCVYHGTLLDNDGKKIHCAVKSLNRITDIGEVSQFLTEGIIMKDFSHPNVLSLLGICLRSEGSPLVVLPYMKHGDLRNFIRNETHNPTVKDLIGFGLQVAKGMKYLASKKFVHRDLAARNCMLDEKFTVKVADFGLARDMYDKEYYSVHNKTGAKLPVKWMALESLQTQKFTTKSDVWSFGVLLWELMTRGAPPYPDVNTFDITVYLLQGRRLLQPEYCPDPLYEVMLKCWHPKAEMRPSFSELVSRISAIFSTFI
Method: Inhibition of c-Met kinase activity by compounds disclosed herein was quantified by measuring the amount of [^33P] incorporated into the substrate in the presence of a test compound. Briefly, a reaction mixture of 25 μL final volume containing 5 ng of c-Met kinase (obtained by purifying recombinant N-terminal 6×His-tagged c-Met kinase domain construct expressed from baculovirus), 1 μg of the substrate (Poly (Glu-Tyr, 4:1, Sigma)), kinase reaction buffer (20 mM MOPS pH 7.0, 1 mM EDTA, 5% glycerol, 0.01% Brij-35, 0.1% β-mercaptoethanol, 1 mg/mL BSA, 100 μM ATP, 0.1 μCi per well [^33P]-γ-ATP (2,500-3,000 Ci/mmol)), and a test compound (500 nM, diluted with 4% DMSO) or DMSO (as the control) was incubated at 30° C. for 30 minutes. The reaction was stopped by adding 5 μL of 3% phosphoric acid solution. The resultant reaction solution was then harvested onto a filter plate (UniFilter-96 GF/B, PerkinElmer), washed 20 times for 5 min with d.d. H2O, and followed by the addition of 30 μL of MicroScint™-20 Cocktail (PerkinElmer). The plate was then sealed and counted using a TopCount scintillation detector (PerkinElmer). The percentage of inhibition rate of the test compound was calculated by dividing the retained radioactivity of the test sample with the retained radioactivity of the control sample and shown in Table 3.

Row | Structure (SMILES) | inhibition at 1 µM (Aurora A kinase) [%] | inhibition at 1 µM (Aurora B kinase) [%] | inhibition at 0.5 µM (c-Met kinase) [%] | IC50 (Aurora A kinase) [nM] | IC50 (Aurora B kinase) [nM]
1 | CCOC(=O)CCc1c(/C=C2\C(=O)Nc3ccc(NC(C)c4ccccc4)cc32)[nH]c2c1C(=O)CCC2 (stereo not drawn) [DCB-70179, (Z)-ethyl 3-(4-oxo-2-((2-oxo-5-(1-phenylethylamino)indolin-3-ylidene)methyl)-4,5,6,7-tetrahydro-1H-indol-3-yl)propanoate] | 59.9 | 40.1 | 17.9 | – | –
2 | CC(=O)c1c(C)[nH]c(/C=C2\C(=O)Nc3ccc(NS(=O)(=O)c4ccccc4)cc32)c1CCC(=O)O [DCB-70200, (Z)-3-(4-acetyl-5-methyl-2-((2-oxo-5-(phenylsulfonamido)indolin-3-ylidene)methyl)-1H-pyrrol-3-yl)propanoic acid] | 93.1 | 57.3 | 15.2 | 60.6 | 870
3 | CCOC(=O)CCc1c(/C=C2\C(=O)Nc3ccc(S(=O)(=O)N4CCc5ccccc54)cc32)[nH]c2c1C(=O)CC(C)(C)C2 [DCB-70160, (Z)-ethyl 3-(2-((5-(indolin-1-ylsulfonyl)-2-oxoindolin-3-ylidene)methyl)-6,6-dimethyl-4-oxo-4,5,6,7-tetrahydro-1H-indol-3-yl)propanoate] | 5 | 6.1 | 59.1 | – | –
4 | CCOC(=O)CCc1c(/C=C2\C(=O)Nc3ccc(NC(=O)Nc4ccc(F)cc4F)cc32)[nH]c2c1C(=O)CCC2 [DCB-70183, (Z)-ethyl 3-(2-((5-(3-(2,4-difluorophenyl)ureido)-2-oxoindolin-3-ylidene)methyl)-4-oxo-4,5,6,7-tetrahydro-1H-indol-3-yl)propanoate] | 13.2 | 13.9 | 1.5 | – | –
5 | CCOC(=O)CCc1c(/C=C2\C(=O)Nc3ccc(S(=O)(=O)Cc4c(Cl)cccc4Cl)cc32)[nH]c2c1C(=O)CC(C)(C)C2 [DCB-70158, (Z)-ethyl 3-(2-((5-(2,6-dichlorobenzylsulfonyl)-2-oxoindolin-3-ylidene)methyl)-6,6-dimethyl-4-oxo-4,5,6,7-tetrahydro-1H-indol-3-yl)propanoate] | 5.2 | 6.1 | 85.4 | – | –
6 | CCOC(=O)CCc1c(/C=C2\C(=O)Nc3ccc(/N=C/c4ccc(F)c(C(F)(F)F)c4)cc32)[nH]c2c1C(=O)CCC2 [DCB-70178, ethyl 3-(2-((Z)-(5-((E)-4-fluoro-3-(trifluoromethyl)benzylideneamino)-2-oxoindolin-3-ylidene)methyl)-4-oxo-4,5,6,7-tetrahydro-1H-indol-3-yl)propanoate] | 31.2 | 1.9 | 7.8 | – | –
7 | CCOC(=O)CCc1c(/C=C2\C(=O)Nc3ccc(NS(=O)(=O)c4cc(F)cc(F)c4)cc32)[nH]c2c1C(=O)CCC2 [DCB-70189, (Z)-ethyl 3-(2-((5-(3,5-difluorophenylsulfonamido)-2-oxoindolin-3-ylidene)methyl)-4-oxo-4,5,6,7-tetrahydro-1H-indol-3-yl)propanoate] | 91.4 | 84 | 14 | 77.9 | 177
8 | CC1(C)CC(=O)c2c([nH]c(/C=C3\C(=O)Nc4ccc(S(=O)(=O)Cc5c(Cl)cccc5Cl)cc43)c2CCC(=O)O)C1 [DCB-70159, (Z)-3-(2-((5-(2,6-dichlorobenzylsulfonyl)-2-oxoindolin-3-ylidene)methyl)-6,6-dimethyl-4-oxo-4,5,6,7-tetrahydro-1H-indol-3-yl)propanoic acid] | 13.9 | -5.5 | 81.3 | – | –
9 | CCCCCCC#Cc1ccc2c(c1)NC(=O)/C2=C\c1[nH]c2c(c1CCC(=O)O)C(=O)CCC2 [DCB-70171, (Z)-3-(2-((6-(oct-1-ynyl)-2-oxoindolin-3-ylidene)methyl)-4-oxo-4,5,6,7-tetrahydro-1H-indol-3-yl)propanoic acid] | 73 | 17.4 | 18.2 | – | –
10 | CCOC(=O)CCc1c(/C=C2\C(=O)Nc3ccc(NS(=O)(=O)c4cc(Cl)cc(Cl)c4)cc32)[nH]c2c1C(=O)CCC2 [DCB-70193, (Z)-ethyl 3-(2-((5-(3,5-dichlorophenylsulfonamido)-2-oxoindolin-3-ylidene)methyl)-4-oxo-4,5,6,7-tetrahydro-1H-indol-3-yl)propanoate] | 74.3 | 36.7 | 11.2 | – | –
11 | O=C(O)CCc1c(/C=C2\C(=O)Nc3ccc(NS(=O)(=O)c4cc(Cl)cc(Cl)c4)cc32)[nH]c2c1C(=O)CCC2 [DCB-70194, (Z)-3-(2-((5-(3,5-dichlorophenylsulfonamido)-2-oxoindolin-3-ylidene)methyl)-4-oxo-4,5,6,7-tetrahydro-1H-indol-3-yl)propanoic acid] | 85.3 | 41.7 | 12.9 | 151 | –
12 | COc1ccc2c(c1)/C(=C/c1[nH]c3c(c1CCC(=O)O)C(=O)CCC3)C(=O)N2 [DCB-70167, (Z)-3-(2-((5-methoxy-2-oxoindolin-3-ylidene)methyl)-4-oxo-4,5,6,7-tetrahydro-1H-indol-3-yl)propanoic acid] | 86.4 | 19.8 | 11.8 | 134 | –
13 | CC(=O)c1c(C)[nH]c(/C=C2\C(=O)Nc3ccc(S(=O)(=O)Cc4c(Cl)cccc4Cl)cc32)c1CCC(=O)O [DCB-70202, (Z)-3-(4-acetyl-2-((5-(2,6-dichlorobenzylsulfonyl)-2-oxoindolin-3-ylidene)methyl)-5-methyl-1H-pyrrol-3-yl)propanoic acid] | 40.2 | 7.3 | 85.2 | – | –
14 | CCN(CC)CCNC(=O)CCc1c(/C=C2\C(=O)Nc3ccc(F)cc32)[nH]c(C)c1C(C)=O [DCB-70213, (Z)-3-(4-acetyl-2-((5-fluoro-2-oxoindolin-3-ylidene)methyl)-5-methyl-1H-pyrrol-3-yl)-N-(2-(diethylamino)ethyl)propanamide] | 1 | 16.4 | 15.5 | – | –
15 | COc1ccc2c(c1)/C(=C/c1[nH]c3c(c1CCC(=O)O)C(=O)CCCC3)C(=O)N2 [DCB-70155, (Z)-3-(2-((5-methoxy-2-oxoindolin-3-ylidene)methyl)-4-oxo-1,4,5,6,7,8-hexahydrocyclohepta[b]pyrrol-3-yl)propanoic acid] | 75.6 | 10.7 | 9.1 | – | –
16 | CCOC(=O)CCc1c(/C=C2\C(=O)Nc3ccc(/N=C/c4ccncc4)cc32)[nH]c2c1C(=O)CCC2 [DCB-70177, ethyl 3-(4-oxo-2-((Z)-(2-oxo-5-((E)-pyridin-4-ylmethyleneamino)indolin-3-ylidene)methyl)-4,5,6,7-tetrahydro-1H-indol-3-yl)propanoate] | 81.6 | 22.5 | 18.8 | – | –
17 | CCN(CC)CCCc1c(/C=C2\C(=O)Nc3ccc(S(=O)(=O)Cc4c(Cl)cccc4Cl)cc32)[nH]c2c1C(=O)CCC2 [DCB-70222, (Z)-5-(2,6-dichlorobenzylsulfonyl)-3-((3-(3-(diethylamino)propyl)-4-oxo-4,5,6,7-tetrahydro-1H-indol-2-yl)methylene)indolin-2-one] | 95.7 | 83.2 | 95.6 | – | –
